The values below are quoted from earlier work in patent publication US7169819B2, “Pharmaceutical compositions of fenretinide having increased bioavailability and methods of using the same” (Childrens Hospital Los Angeles, priority 2000, dated 2007).

For data set [1] the following is noted: background statement.
The conditions of data set [2]: rodents.

As to `CC1=C(/C=C/C(C)=C/C=C/C(C)=C/C(=O)Nc2ccc(O)cc2)C(C)(C)CCC1` [Fenretinide, all-trans-N-(4-hydroxyphenyl)retinamide], in data set [1], the “Solubility in aqueous solution” value is on record as “minimally soluble”. Also, the half-life in data set [2] was 12 to 16 h.

Usually half-life stands for the time in which the quantity being followed falls by half.
